ChEMBL document CHEMBL5154832, “Design, Synthesis, and Proof-of-Concept of Triple-Site Inhibitors against Aminoacyl-tRNA Synthetases” (J Med Chem, 2022)
Values after ≈ are worked out from the molar mass of the structure shown.

Assays:
Enterococcus faecalis = test: Antibacterial activity against Enterococcus faecalis ATCC 29212 strain assessed as inhibition of bacterial growth incubated for 8 hrs by CLSI protocol based microdilution assay; assay type: functional
Staphylococcus aureus [1] = test: Antibacterial activity against Staphylococcus aureus MRSA R3708 strain assessed as inhibition of bacterial growth incubated for 8 hrs by CLSI protocol based microdilution assay; assay type: functional
Threonine--tRNA ligase [2] = target: T1, Threonine--tRNA ligase (Salmonella enterica, UniProt A0A3F3IEK2); test: Binding affinity to full length recombinant salmonella enterica threonyl-tRNA synthetase assessed as dissociation constant in presence of glycine by isothermal titration calorimetry assay
T1 sequence (A0A3F3IEK2 whole entry): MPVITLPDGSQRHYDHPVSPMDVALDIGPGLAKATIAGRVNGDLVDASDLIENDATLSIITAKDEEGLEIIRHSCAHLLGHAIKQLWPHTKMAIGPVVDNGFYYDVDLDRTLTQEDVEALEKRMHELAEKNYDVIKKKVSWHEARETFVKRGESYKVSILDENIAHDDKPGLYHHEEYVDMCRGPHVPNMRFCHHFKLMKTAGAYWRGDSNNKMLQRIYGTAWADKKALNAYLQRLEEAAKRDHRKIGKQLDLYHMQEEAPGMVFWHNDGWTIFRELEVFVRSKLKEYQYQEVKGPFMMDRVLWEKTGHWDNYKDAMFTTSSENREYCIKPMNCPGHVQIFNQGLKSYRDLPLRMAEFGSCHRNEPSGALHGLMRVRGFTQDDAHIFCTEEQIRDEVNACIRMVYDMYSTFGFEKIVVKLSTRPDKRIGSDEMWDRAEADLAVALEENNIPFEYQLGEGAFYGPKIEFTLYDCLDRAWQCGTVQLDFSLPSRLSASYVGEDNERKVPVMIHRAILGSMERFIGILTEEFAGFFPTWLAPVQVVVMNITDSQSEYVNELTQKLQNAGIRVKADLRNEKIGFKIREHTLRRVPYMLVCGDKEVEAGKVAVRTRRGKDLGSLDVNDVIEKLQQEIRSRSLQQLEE

Threonine--tRNA ligase [3] = target: T1, Threonine--tRNA ligase; test: Inhibition of recombinant salmonella enterica threonyl-tRNA synthetase assessed as reduction in enzyme activity incubated for 20 min by Kinase Glo luminescence assay
Staphylococcus aureus [4] = test: Antibacterial activity against Staphylococcus aureus ATCC 29213 strain assessed as inhibition of bacterial growth incubated for 8 hrs by CLSI protocol based microdilution assay; assay type: functional
Threonine--tRNA ligase [5] = target: T1, Threonine--tRNA ligase; test: Binding affinity to full length recombinant salmonella enterica threonyl-tRNA synthetase assessed as dissociation constant in presence of ATP by isothermal titration calorimetry assay
Escherichia coli [6] = test: Antibacterial activity against Escherichia coli acraB strain assessed as inhibition of bacterial growth incubated for 8 hrs by CLSI protocol based microdilution assay; assay type: functional
Escherichia coli [7] = test: Antibacterial activity against Escherichia coli ATCC 25922 strain assessed as inhibition of bacterial growth incubated for 8 hrs by CLSI protocol based microdilution assay; assay type: functional
Threonine--tRNA ligase [8] = target: T1, Threonine--tRNA ligase; test: Binding affinity to full length recombinant salmonella enterica threonyl-tRNA synthetase assessed as dissociation constant in presence of tRNA Threonine by isothermal titration calorimetry assay
Threonine--tRNA ligase [9] = target: T1, Threonine--tRNA ligase; test: Binding affinity to full length recombinant salmonella enterica threonyl-tRNA synthetase assessed as dissociation constant in presence of L-threonine by isothermal titration calorimetry assay
Threonine--tRNA ligase [10] = target: T1, Threonine--tRNA ligase; test: Binding affinity to full length recombinant salmonella enterica threonyl-tRNA synthetase assessed as dissociation constant in presence of tRNA Leucine by isothermal titration calorimetry assay
[11] = target: T2, Threonine--tRNA ligase (Salmonella enterica) (UniProt A0A3F3IEK2); test: Inhibition of recombinant salmonella enterica threonyl-tRNA synthetase assessed as reduction in enzyme activity at 10 uM incubated for 20 min by Kinase Glo luminescence assay relative to control
T2 sequence (whole entry): T1 sequence (A0A3F3IEK2 whole entry)

Pseudomonas aeruginosa = test: Antibacterial activity against Pseudomonas aeruginosa ATCC27853 strain assessed as inhibition of bacterial growth incubated for 8 hrs by CLSI protocol based microdilution assay; assay type: functional
Salmonella enterica [12] = test: Antibacterial activity against Salmonella enterica 87 strain assessed as inhibition of bacterial growth incubated for 8 hrs by CLSI protocol based microdilution assay; assay type: functional
Threonine--tRNA ligase [13] = target: T1, Threonine--tRNA ligase; test: Binding affinity to full length recombinant salmonella enterica threonyl-tRNA synthetase assessed as dissociation constant by isothermal titration calorimetry assay
[14] = target: T2, Threonine--tRNA ligase (Salmonella enterica); test: Binding affinity to recombinant salmonella enterica threonyl-tRNA synthetase assessed as change in melting temperature at 0.1 mM by fluorescence-based thermal shift assay
Salmonella enterica [15] = test: Antibacterial activity against Salmonella enterica 87 strain assessed as inhibition of bacterial growth incubated in M9 medium for 8 hrs by CLSI protocol based microdilution assay; assay type: functional

| MIC (Enterococcus faecalis) [µg/mL] | MIC (Staphylococcus aureus [1]) [µg/mL] | Kd (Threonine--tRNA ligase [2]) [nM] | IC50 (Threonine--tRNA ligase [3]) [nM] | MIC (Staphylococcus aureus [4]) [µg/mL] | Kd (Threonine--tRNA ligase [5]) [nM] | MIC (Escherichia coli [6]) [µg/mL] | MIC (Escherichia coli [7]) [µg/mL] | Kd (Threonine--tRNA ligase [8]) [nM] | Kd (Threonine--tRNA ligase [9]) [nM] | Kd (Threonine--tRNA ligase [10]) [nM] | inhibition [11] [%] | MIC (Pseudomonas aeruginosa) [µg/mL] | MIC (Salmonella enterica [12]) [µg/mL] | Kd (Threonine--tRNA ligase [13]) [nM] | ΔTm [14] [°C] | MIC (Salmonella enterica [15]) [µg/mL] | Structure (SMILES) |
| --- | --- | --- | --- | --- | --- | --- | --- | --- | --- | --- | --- | --- | --- | --- | --- | --- | --- |
| ≥ 128 | ≥ 128 | 44.4 | 19 | ≥ 128 | 75.1 | ≥ 128 | ≥ 128 | 166 | 290 | 36.8 | > 99 | ≥ 128 | ≥ 128 | 35.4 | 33.6 | – | C[C@@H](O)[C@H](N)C(=O)N[C@@H](CNC(=O)CCn1cnc2cc(Cl)c(Cl)cc2c1=O)c1cccc(-c2ccc3c(c2)CNC3=O)c1 |
| 64 (≈ 166 µM) | ≥ 128 | – | – | ≥ 128 | – | 64 (≈ 166 µM) | ≥ 128 | – | – | – | 45 | ≥ 128 | 64 (≈ 166 µM) | – | 17.6 | 16 (≈ 41.5 µM) | C[C@@H](O)[C@H](N)C(=O)NCC=CCn1cnc2cc(Cl)c(Cl)cc2c1=O |
| 64 (≈ 92 µM) | ≥ 128 | – | 5070 | ≥ 128 | – | 64 (≈ 92 µM) | ≥ 128 | – | – | – | 80 | 64 (≈ 92 µM) | ≥ 128 | – | 25.4 | – | C[C@@H](O)[C@H](N)C(=O)N(CCC(=O)NCCn1cnc2cc(Br)c(Cl)cc2c1=O)Cc1cccc(-c2ccc3c(c2)CNC3=O)c1 |
